Experimental data from paper PMC10951340, “Two DOT1 enzymes cooperatively mediate efficient ubiquitin-independent histone H3 lysine 76 tri-methylation in kinetoplastids” (Nature Communications, 2024).

Tests used:
Δ42-DOT1A [1] = target: T1, Δ42-DOT1A (Trypanosoma brucei, UniProt Q581Z0); assay: X-ray crystal structure of the complex ([…] and […] Å); format: binding; design: residues 43-295, E. coli, His6-tag cut with PreScission; details: active site; co-crystallised with twofold molar excess
Δ27-DOT1B = Δ27-DOT1B (Trypanosoma brucei, UniProt Q4GZF2); details: co-substrate T. brucei nucleosome, pH 8.5, 25 °C; labelled compound
Δ27-DOT1B, sequence (Q4GZF2 entry or part of it, stated change not applied): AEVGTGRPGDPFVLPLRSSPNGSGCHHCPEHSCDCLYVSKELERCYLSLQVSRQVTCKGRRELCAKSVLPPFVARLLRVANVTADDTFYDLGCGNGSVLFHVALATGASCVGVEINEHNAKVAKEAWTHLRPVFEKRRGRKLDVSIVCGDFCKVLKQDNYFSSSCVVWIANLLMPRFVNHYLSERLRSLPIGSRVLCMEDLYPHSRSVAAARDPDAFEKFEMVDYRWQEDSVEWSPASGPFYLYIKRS

full-length DOT1A = target: T2, full-length DOT1A (Trypanosoma brucei, UniProt Q581Z0); assay: 3H-methyl incorporation into nucleosome; quantitative MS of H3K76; format: biochemical; details: co-substrate T. brucei nucleosome, pH 8.5, 25 °C; labelled compound
T2 construct: full length (295 residues), Sf9 cells, His6-tag cut with PreScission
T2 sequence (Q581Z0 1-295): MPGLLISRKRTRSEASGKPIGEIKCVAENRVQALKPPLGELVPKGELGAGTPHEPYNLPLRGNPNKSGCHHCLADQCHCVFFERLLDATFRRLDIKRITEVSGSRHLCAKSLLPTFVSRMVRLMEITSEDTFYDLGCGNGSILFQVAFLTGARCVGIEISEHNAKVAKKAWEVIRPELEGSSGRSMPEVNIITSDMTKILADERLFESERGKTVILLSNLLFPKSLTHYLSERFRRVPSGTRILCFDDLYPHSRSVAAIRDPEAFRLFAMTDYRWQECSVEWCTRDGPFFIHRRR

Δ42-DOT1A [2] = target: T1, Δ42-DOT1A; details: pH 8.5, on ice, 254 nm 1 h; covalent photo-cross-link; labelled compound
DOT1L (1-420) = DOT1L (1-420) (human, UniProt Q8TEK3 1-420); assay: fluorescence polarization; n = 2; FP: 5 nM probe, 100 mM NaCl, 20 mM Tris-HCl pH 7.5, 5% glycerol, 0.5 mM TCEP, 25 °C, 10 min; footprinting at ambient temperature; details: protein: recombinant; tags: His6 cleaved (PreScission); label: 5'-FAM on strand 1; 5' overhang 2 nt (CC) on strand 2
DOT1L (1-420), sequence (Q8TEK3 1-420): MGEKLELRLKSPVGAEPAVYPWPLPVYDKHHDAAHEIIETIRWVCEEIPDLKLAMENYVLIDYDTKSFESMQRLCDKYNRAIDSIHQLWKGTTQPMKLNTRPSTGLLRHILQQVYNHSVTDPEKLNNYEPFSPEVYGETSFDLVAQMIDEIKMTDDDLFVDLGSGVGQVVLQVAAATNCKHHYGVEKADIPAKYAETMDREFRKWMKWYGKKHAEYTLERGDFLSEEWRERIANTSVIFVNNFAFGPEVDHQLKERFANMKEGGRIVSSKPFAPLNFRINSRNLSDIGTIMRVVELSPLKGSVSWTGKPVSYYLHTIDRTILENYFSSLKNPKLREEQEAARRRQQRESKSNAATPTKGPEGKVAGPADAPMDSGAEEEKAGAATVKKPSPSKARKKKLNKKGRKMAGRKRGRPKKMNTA

DOT1A full-length = target: T3, DOT1A full-length (Trypanosoma brucei strain Lister 427, UniProt Q581Z0 1-295); assay: fluorescence polarization; n = 1; FP: 5 nM probe, 100 mM NaCl, 20 mM Tris-HCl pH 7.5, 5% glycerol, 0.5 mM TCEP, 25 °C, 10 min; footprinting at ambient temperature; details: protein: recombinant; tags: His6 cleaved (PreScission); label: 5'-FAM on strand 1; 5' overhang 2 nt (CC) on strand 2
T3 sequence: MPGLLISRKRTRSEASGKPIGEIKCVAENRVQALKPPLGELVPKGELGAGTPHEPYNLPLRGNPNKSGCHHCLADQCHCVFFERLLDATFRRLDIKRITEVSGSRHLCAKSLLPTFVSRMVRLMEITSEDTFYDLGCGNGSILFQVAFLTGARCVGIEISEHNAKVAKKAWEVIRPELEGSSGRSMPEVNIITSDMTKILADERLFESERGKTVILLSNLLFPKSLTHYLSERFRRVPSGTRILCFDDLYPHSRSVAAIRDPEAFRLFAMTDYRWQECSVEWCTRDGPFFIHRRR

Δ42-DOT1A [3] = target: T4, Δ42-DOT1A (Trypanosoma brucei strain Lister 427, UniProt Q581Z0 43-295); assay: fluorescence polarization; not detectable; n = 1; FP: 5 nM probe, 100 mM NaCl, 20 mM Tris-HCl pH 7.5, 5% glycerol, 0.5 mM TCEP, 25 °C, 10 min; footprinting at ambient temperature; details: protein: recombinant; tags: His6 cleaved (PreScission); label: 5'-FAM on strand 1; 5' overhang 2 nt (CC) on strand 2
T4 sequence: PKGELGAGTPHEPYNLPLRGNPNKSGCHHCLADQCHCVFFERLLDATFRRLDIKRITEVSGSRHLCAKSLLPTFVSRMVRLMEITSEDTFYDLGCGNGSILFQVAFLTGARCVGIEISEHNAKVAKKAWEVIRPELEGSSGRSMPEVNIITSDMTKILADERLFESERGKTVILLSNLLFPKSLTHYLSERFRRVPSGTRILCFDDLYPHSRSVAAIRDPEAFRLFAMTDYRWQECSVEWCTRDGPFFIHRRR

Nc1ncnc2c1ncn2[C@@H]1O[C@H](CSCC[C@H](N)C(=O)O)[C@@H](O)[C@H]1O [AdoHcy]
X-ray crystal structure of the complex (2.1 and 1.9 Å) (Δ42-DOT1A [1]): Δ42-DOT1A crystallized in complex with the methyl donor product AdoHcy in two different crystal forms

C[S+](CC[C@H](N)C(=O)O)C[C@H]1O[C@@H](n2cnc3c(N)ncnc32)[C@H](O)[C@@H]1O (stereo partly shown) [AdoMet]
3H-methyl incorporation into nucleosome; quantitative MS of H3K76 (Δ27-DOT1B): Δ27-DOT1B showed significant methyltransferase activity by measuring tritium incorporation from [methyl-^3H] AdoMet in vitro
3H-methyl incorporation into nucleosome; quantitative MS of H3K76 (full-length DOT1A): Methyltransferase activity of full-length DOT1A, Δ42-DOT1A, and Δ27-DOT1B toward the recombinant T. brucei nucleosome
UV cross-linking of [methyl-3H]AdoMet, SDS-PAGE fluorography (Δ42-DOT1A [2]): AdoMet binding analyzed by cross-linking experiments showing Coomassie stain (middle) and fluorography (bottom)

B1: FAM-dsDNA probe (dsDNA)
DNA 1: CTACAGTTCGTCAGGATTCC
DNA 2: CCGGAATCCTGACGAACTGTAG
Kd (DOT1L (1-420)): 0.11 ± 0.02 µM
Kd (DOT1A full-length): 0.9 ± 0.2 µM
binding result (Δ42-DOT1A [3]): no binding
